The values that follow come from US7164023B2, “Benzoquinolizine-2-carboxylic acid arginine salt tetrahydrate” (priority 2003, dated 2007).

The structures appear in SMILES notation. Where a name gives a salt, the structure may show the parent alone.

Series [1] is described as follows: Temperature/relative humidity-related stability (validated HPLC assay, XRPD). It is filed as physicochemical. The text has this: 3 Sample batches of the compound were stored under the conditions of the study as stated in the table below. The assay was done by a validated HPLC method.
In series [2] the test system is broad spectrum of microorganisms including antibiotic-resistant strains of Staphylococcus aureus, more particularly glycopeptide-resistant staphylococci. The note with it: incl. antibiotic-resistant S. aureus; cited from earlier work.
The conditions of series [3]: in vivo; cited from earlier work.
Series [4] in a line: Conversion of monohydrate to tetrahydrate under ambient conditions, by XRPD. The class given is physicochemical. The note with it: ambient temperature (35° C.) and relative humidity (60%). As for the experimental part:
X-ray diffraction analyses (40 kv x 40 mA Rigaku D/max 2200) were performed under the conditions listed below: • Scan speed 5°/min or 20°/min • Sampling time 7 min or 2 min • Scan mode: continuous • 2θ/θ reflection • Cu target (Ni filter)

In the case of `C[C@H]1CCc2c(N3CCC(O)CC3)c(F)cc3c(=O)c(C(=O)O)cn1c23` [S-(−)-9-fluoro-6,7-dihydro-8-(4-hydroxypiperidin-1-yl)-5-methyl-1-oxo-1H,5H-benzo[i,j]quinolizine-2-carboxylic acid L-arginine salt tetrahydrate], the “HPLC assay on storage” value in series [1] (25° C./60% relative humidity, 3 months) is reported as 99.22%; in series [1] (25° C./60% relative humidity, Initial), 99.31%; in series [1] (40° C./75% relative humidity, 1 month), 99.30%; in series [1] (40° C./75% relative humidity, 2 months) it was 99.25%; in series [1] (40° C./75% relative humidity, 3 months), 99.27%; in series [1] (40° C./75% relative humidity, Initial), 99.31%. Besides, the “Crystallinity on storage as seen by XRPD spectra” value in series [1] (storage conditions of the stability study) is given as “underwent no changes”.

On to `C[C@H]1CCc2c(N3CCC(O)CC3)c(F)cc3c(=O)c(C(=O)O)cn1c23.N=C(N)NCCC[C@H](N)C(=O)O` [S-(−)-9-fluoro-6,7-dihydro-8-(4-hydroxypiperidin-1-yl)-5-methyl-1-oxo-1H,5H-benzo[i,j]quinolizine-2-carboxylic acid L-arginine salt], for which, in series [2], the “Efficacy against microorganisms in mammals” value is “effective against a broad spectrum of microorganisms”. Moreover, the Overall tolerability result in series [3] is “excellent overall tolerability”.

Turning to `C[C@H]1CCc2c(N3CCC(O)CC3)c(F)cc3c(=O)c(C(=O)O)cn1c23.N=C(N)NCCC[C@H](N)C(=O)O` [monohydrate, S-(−)-9-fluoro-6,7-dihydro-8-(4-hydroxypiperidin-1-yl)-5-methyl-1-oxo-1H,5H-benzo[i,j]quinolizine-2-carboxylic acid L-arginine salt], in series [4], the “Physical stability / moisture absorption” value was “highly unstable and rapidly absorbs moisture”; the “Time until XRPD spectra change towards tetrahydrate” value was at most 20 min.
